Test results published in patent US20150246071A1, “TREATMENT COMPOSITIONS” (REOXCYN DISCOVERIES GROUP, INC., priority 2012, published 2015).

Assays:
[1] = tested on: phosphorylated proteins (extra-nuclear fraction); assay: Western Blot of protein phosphorylation in extra-nuclear fraction of HMVEC-L; type: cell-based, human; settings: composition 1%, H2O2 positive control
Method: (§1) 8. A Western Blot analysis was done on extra-nuclear and intra-nuclear fractions, separated by differential centrifugation, of serum starved HMVEC-L cell cultures exposed to <1% of a composition of the invention compared with a positive hydrogen peroxide control to determine phosphorylation events (oxidant action) in the extra-nuclear fraction and NRF2 (antioxidant transcription) in the intra-nuclear fraction at 0, 30, 60, 90 and 120 min intervals.
(§2) Experimental Methods for Western Blot Validation of NRF2 Nuclear Accumulation: HMVEC-L were treated with 1% of a composition of the invention, nuclear extracts were separated through centrifugal differentiation from the extra-nuclear cytosol at 30, 60 and 120 min and subjected to Western Blot analysis for NRF2. In the Western blot experiment the extra-nuclear fraction was probed for phosphorylated proteins using a combination of anti-phospho serine, threonine and tyrosine antibodies. Virtually all cellular processes are regulated by posttranslational modifications and protein phosphorylation is a prevalent mechanism. […]

NRF2 = assay: Western Blot validation of NRF2 nuclear accumulation in HMVEC-L; type: cell-based, human; settings: ASEA 1% at 30, 60, 120 min, H2O2 30 min
Method: as §1, §2

For `OO` [H2O2, Hydrogen peroxide], the “phosphorylation of extra-nuclear protein (Western Blot)” value [1] was “marked increase” and the “NRF2 levels in nuclear extracts (Western Blot)” value (NRF2) was “did not increase”.
